Reference: patent publication US20080119477A1, “N-Biaryl and N-Arylheteroaryl Piperazine Derivatives as Modulators of the 5Ht2c Receptor Useful For the Treatment of Disorders Related Thereto” (priority 2004, published 2008)

What was measured:
[1] = target: 5HT2B receptor (Homo sapiens, UniProt P41595); assay: Activity against the 5HT2B receptor (selectivity); type: cell-based
[2] = target: 5HT2A receptor (Homo sapiens, UniProt P28223); assay: EC50 against the 5HT2A receptor (selectivity); type: cell-based
Sequence of 5HT2A receptor (P28223 whole entry): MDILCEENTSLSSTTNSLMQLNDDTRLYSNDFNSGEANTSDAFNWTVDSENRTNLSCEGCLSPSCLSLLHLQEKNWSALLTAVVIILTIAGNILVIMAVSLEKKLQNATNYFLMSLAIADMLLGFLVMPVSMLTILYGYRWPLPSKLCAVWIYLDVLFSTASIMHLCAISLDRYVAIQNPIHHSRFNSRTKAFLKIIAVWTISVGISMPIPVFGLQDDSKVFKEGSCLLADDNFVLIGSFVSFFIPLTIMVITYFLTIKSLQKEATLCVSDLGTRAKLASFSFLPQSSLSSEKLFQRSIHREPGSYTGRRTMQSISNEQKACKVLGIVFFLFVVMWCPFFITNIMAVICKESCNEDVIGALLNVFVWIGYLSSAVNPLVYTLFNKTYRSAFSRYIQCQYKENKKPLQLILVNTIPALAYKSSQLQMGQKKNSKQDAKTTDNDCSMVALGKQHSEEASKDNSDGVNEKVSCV

[3] = target: T1, human 5HT2C receptor (Homo sapiens, UniProt P28335); assay: Intracellular IP3 accumulation assay, 5HT2C; type: cell-based; details: HEK293 cells transfected with human 5HT2C receptor cDNA; read-out: 5HT2C (EC50) IP Accumulation Assay
T1 construct: expressed in transfected cells; host or cells: HEK293
T1 sequence (P28335 33-458): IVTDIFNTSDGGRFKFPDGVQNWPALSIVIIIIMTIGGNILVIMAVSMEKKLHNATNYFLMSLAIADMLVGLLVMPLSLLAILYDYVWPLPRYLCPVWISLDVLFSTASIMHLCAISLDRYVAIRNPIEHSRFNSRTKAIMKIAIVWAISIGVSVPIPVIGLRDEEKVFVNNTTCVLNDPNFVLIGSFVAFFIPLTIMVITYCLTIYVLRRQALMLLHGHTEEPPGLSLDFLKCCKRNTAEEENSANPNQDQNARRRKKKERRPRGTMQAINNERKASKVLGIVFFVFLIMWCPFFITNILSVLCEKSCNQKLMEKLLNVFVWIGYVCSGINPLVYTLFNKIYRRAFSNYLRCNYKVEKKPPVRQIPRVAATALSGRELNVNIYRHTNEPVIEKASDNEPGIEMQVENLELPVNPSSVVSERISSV
Method: Intracellular IP3 Accumulation Assay:
HEK293 cells were transfected in 15 cm sterile dishes with or without (control) 16 ug of human 5HT2C receptor cDNA [for example see, Saltzman, A. G., et al. Biochem. Biophys. Res. Commun. 181, 1469-1478 (1991)] using 25 ul of lipofectamine. Cells were then incubated for 3-4 hours at 37° C./5% CO2 and then transfection media was removed and replaced with 100 ul of DMEM. Cells were then plated onto 100 cm sterile dishes. The next day cells were plated into 96 well PDL microtiter plates at a density of 55 K/0.2 mL. Six hours latter, media was exchanged with [^3H]inositol (0.25 uCi/well) in inositol free DMEM and plates were incubated at 37° C./5% CO2 overnight. The next day, wells were aspirated and 200 ul of DMEM containing test compound, 10 uM pargyline, and 10 mM LiCl was added to appropriate wells. Plates were then incubated at 37° C./5% CO2 for three hours followed aspiration and by addition of fresh ice cold stop solution (1M KOH, 19 mM Na-borate, 3.8 mM EDTA) to each well. Plates were kept on ice for 5-10 min and the wells were neutralized by addition of 200 ul of fresh ice cold neutralization solution (7.5% HCl). Plates were then frozen until further processing is desired. The lysate was then transferred into 1.5 mL Eppendorf tubes and 1 mL of chloroform/methanol (1:2) was added/tube. […]

[4] = test system: amyloid precursor protein (APPs) secretion; details: guinea pigs, repeat administration; cited from earlier work

Sequence of 5HT2B receptor (P41595 whole entry): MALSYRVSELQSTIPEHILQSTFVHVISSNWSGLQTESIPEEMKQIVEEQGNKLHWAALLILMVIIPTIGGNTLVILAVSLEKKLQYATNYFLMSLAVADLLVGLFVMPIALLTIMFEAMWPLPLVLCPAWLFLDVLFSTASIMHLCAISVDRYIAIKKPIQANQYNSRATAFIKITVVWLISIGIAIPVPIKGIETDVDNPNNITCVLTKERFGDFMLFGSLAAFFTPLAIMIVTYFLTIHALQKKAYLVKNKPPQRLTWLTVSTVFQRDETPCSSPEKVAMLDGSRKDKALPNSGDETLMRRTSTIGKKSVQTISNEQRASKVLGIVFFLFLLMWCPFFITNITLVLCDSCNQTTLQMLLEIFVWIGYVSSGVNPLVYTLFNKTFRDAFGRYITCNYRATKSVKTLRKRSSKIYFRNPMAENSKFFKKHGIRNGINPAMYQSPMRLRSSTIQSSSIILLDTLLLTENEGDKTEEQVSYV

Row | Compound | activity against the 5HT2B receptor [1] | EC50 [2] [nM] | EC50 [3] [nM] | amyloid precursor protein (APPs) secretion [4] | levels of Aβ production in vivo [4]
1 | Fc1cc(-c2ccsc2)cc(N2CCNCC2)c1 [Compound 1, 1-(3-Fluoro-5-thiophen-3-yl-phenyl)-piperazine] | essentially inactive | > 10000 | 7 | – | –
2 | Fc1ccc(-c2ccccc2)cc1N1CCNCC1 [Compound 10, 1-(4-Fluoro-biphenyl-3-yl)-piperazine] | essentially inactive | – | 21 | – | –
3 | C[C@H](N)Cc1cccc(C(F)(F)F)c1 [dexnorfenfluramine] | – | – | – | stimulated | reducing levels
